In ChEMBL document CHEMBL1201861, “Genomics of Drug Sensitity in Cancer screening data, Wellcome Trust Sanger Institute”:

Experiments:
Test in all cases: cells
COR-L23 = type: functional, cell-based, Homo sapiens; conditions: Homo sapiens, COR-L23;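 also: cell viability assay measuring how strongly compounds suppress growth of COR-L23 cells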
Description: SANGER: Inhibition of human COR-L23 cell growth in a cell viability assay.

ChaGo-K-1 = type: functional, cell-based, Homo sapiens; conditions: Homo sapiens, ChaGo-K-1;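 also: growth inhibition of ChaGo-K-1 cells, read out with a cell viability assay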
Description: SANGER: Inhibition of human ChaGo-K-1 cell growth in a cell viability assay.

D-566MG = type: functional, cell-based, Homo sapiens; conditions: Homo sapiens, D-566MG
DK-MG = type: functional, cell-based, Homo sapiens; conditions: Homo sapiens, DK-MG;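 also: growth inhibition of DK-MG cells, read out with a cell viability assay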
Description: SANGER: Inhibition of human DK-MG cell growth in a cell viability assay.

DOK = type: functional, cell-based, Homo sapiens; conditions: Homo sapiens, DOK;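 also: cell viability assay read-out, values reflect inhibition of cell growth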
Description: SANGER: Inhibition of human DOK cell growth in a cell viability assay.

GCT = type: functional, cell-based, Homo sapiens; conditions: Homo sapiens, GCT;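 also: GCT cell line proliferation inhibition, read out with a cell viability assay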
Description: SANGER: Inhibition of human GCT cell growth in a cell viability assay.

HCC1954 = type: functional, cell-based, Homo sapiens; conditions: Homo sapiens, HCC1954;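 also: growth inhibition of human HCC1954 cells, read out with a cell viability assay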
Description: SANGER: Inhibition of human HCC1954 cell growth in a cell viability assay.

HGC-27 = type: functional, cell-based, Homo sapiens; conditions: Homo sapiens, HGC-27;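 also: growth inhibition of human HGC-27 cells, read out in a cell viability assay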
Description: SANGER: Inhibition of human HGC-27 cell growth in a cell viability assay.

HN = type: functional, cell-based, Homo sapiens; conditions: Homo sapiens, HN
Description: SANGER: Inhibition of human HN cell growth in a cell viability assay.

HO-1-N-1 = type: functional, cell-based, Homo sapiens; conditions: Homo sapiens, HO-1-N-1;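 also: growth inhibition of human HO-1-N-1 cells, read out with a cell viability assay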
Description: SANGER: Inhibition of human HO-1-N-1 cell growth in a cell viability assay.

HuCCT-1 = type: functional, cell-based, Homo sapiens, HuCCT1; conditions: Homo sapiens, HuCCT-1;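 also: growth inhibition of HuCCT-1 cells, read out by a cell viability assay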
Description: SANGER: Inhibition of human HuCCT1 cell growth in a cell viability assay.

HuP-T3 = type: functional, cell-based, Homo sapiens; conditions: Homo sapiens, HuP-T3;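 also: HuP-T3 cell growth inhibition, read out with a cell viability assay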
Description: SANGER: Inhibition of human HuP-T3 cell growth in a cell viability assay.

KYSE-270 = type: functional, cell-based, Homo sapiens; conditions: Homo sapiens, KYSE-270;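 also: cell growth inhibition measured with a viability assay in the human KYSE-270 line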
Description: SANGER: Inhibition of human KYSE-270 cell growth in a cell viability assay.

MEL-HO = type: functional, cell-based, Homo sapiens; conditions: Homo sapiens, MEL-HO
Description: SANGER: Inhibition of human MEL-HO cell growth in a cell viability assay.

MKN-7 = type: functional, cell-based, Homo sapiens; conditions: Homo sapiens, MKN-7;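 also: growth inhibition of MKN-7 cells, read out with a cell viability assay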
Description: SANGER: Inhibition of human MKN7 cell growth in a cell viability assay.

NCI-H1693 = type: functional, cell-based, Homo sapiens; conditions: Homo sapiens, NCI-H1693;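 also: growth inhibition of the human cell line, read out with a cell viability assay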
Description: SANGER: Inhibition of human NCI-H1693 cell growth in a cell viability assay.

NCI-H520 = type: functional, cell-based, Homo sapiens; conditions: Homo sapiens, NCI-H520;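 also: growth inhibition of NCI-H520 cells, measured by a cell viability assay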
Description: SANGER: Inhibition of human NCI-H520 cell growth in a cell viability assay.

NCI-H630 = type: functional, cell-based, Homo sapiens; conditions: Homo sapiens, NCI-H630;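 also: growth inhibition of NCI-H630 cells, read out with a cell viability assay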
Description: SANGER: Inhibition of human NCI-H630 cell growth in a cell viability assay.

NY = type: functional, cell-based, Homo sapiens; conditions: Homo sapiens, NY
Description: SANGER: Inhibition of human NY cell growth in a cell viability assay.

OC-314 = type: functional, cell-based, Homo sapiens; conditions: Homo sapiens, OC-314
Description: SANGER: Inhibition of human OC-314 cell growth in a cell viability assay.

PC-14 = type: functional, cell-based, Homo sapiens; conditions: Homo sapiens, PC-14;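 also: cell viability assay measuring inhibition of PC-14 cell growth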
Description: SANGER: Inhibition of human PC-14 cell growth in a cell viability assay.

RCM-1 = type: functional, cell-based, Homo sapiens; conditions: Homo sapiens, RCM-1;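 also: growth inhibition of the RCM-1 line, determined with a cell viability readout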
Description: SANGER: Inhibition of human RCM-1 cell growth in a cell viability assay.

SAS = type: functional, cell-based, Homo sapiens; conditions: Homo sapiens, SAS;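 also: growth inhibition of SAS cells, read out with a cell viability assay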
Description: SANGER: Inhibition of human SAS cell growth in a cell viability assay.

SF-295 = type: functional, cell-based, Homo sapiens; conditions: Homo sapiens, SF-295;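 also: growth inhibition of SF-295 cells, read out with a cell viability assay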
Description: SANGER: Inhibition of human SF295 cell growth in a cell viability assay.

SK-LU-1 = type: functional, cell-based, Homo sapiens; conditions: Homo sapiens, SK-LU-1;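 also: cell viability assay measuring growth inhibition of human SK-LU-1 cells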
Description: SANGER: Inhibition of human SK-LU-1 cell growth in a cell viability assay.

SK-MES-1 = type: functional, cell-based, Homo sapiens; conditions: Homo sapiens, SK-MES-1;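 also: growth inhibition of human SK-MES-1 cells, read out with a cell viability assay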
Description: SANGER: Inhibition of human SK-MES-1 cell growth in a cell viability assay.

SW13 = type: functional, cell-based, Homo sapiens; conditions: Homo sapiens, SW13;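 also: IC50 is inhibition of SW13 cell growth, read out with a cell viability assay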
Description: SANGER: Inhibition of human SW13 cell growth in a cell viability assay.

SW1783 = type: functional, cell-based, Homo sapiens; conditions: Homo sapiens, SW1783;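 also: cell growth inhibition measured with a viability assay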
Description: SANGER: Inhibition of human SW1783 cell growth in a cell viability assay.

SW-620 = type: functional, cell-based, Homo sapiens; conditions: Homo sapiens, SW-620;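 also: growth inhibition of human SW-620 cells, measured by a cell viability assay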
Description: SANGER: Inhibition of human SW620 cell growth in a cell viability assay.

SW756 = type: functional, cell-based, Homo sapiens; conditions: Homo sapiens, SW756;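 also: growth inhibition of human SW756 cells, read out with a cell viability assay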
Description: SANGER: Inhibition of human SW756 cell growth in a cell viability assay.

SW780 = type: functional, cell-based, Homo sapiens; conditions: Homo sapiens, SW780;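 also: growth inhibition of the cells, read out with a cell viability assay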
Description: SANGER: Inhibition of human SW780 cell growth in a cell viability assay.

T47D = type: functional, cell-based, Homo sapiens; conditions: Homo sapiens, T47D;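 also: growth inhibition of human T47D cells, measured with a cell viability assay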
Description: SANGER: Inhibition of human T47D cell growth in a cell viability assay.

A-431 = type: functional, cell-based, Homo sapiens; conditions: Homo sapiens, A-431;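 also: growth inhibition of A-431 cells, determined with a cell viability read-out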
Description: SANGER: Inhibition of human A431 cell growth in a cell viability assay.

A549 = type: functional, cell-based, Homo sapiens; conditions: Homo sapiens, A549;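 also: growth inhibition of A549 cells, read out with a cell viability assay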
Description: SANGER: Inhibition of human A549 cell growth in a cell viability assay.

BFTC-909 = type: functional, cell-based, Homo sapiens; conditions: Homo sapiens, BFTC-909
Description: SANGER: Inhibition of human BFTC-909 cell growth in a cell viability assay.

UACC-62 = type: functional, cell-based, Homo sapiens; conditions: Homo sapiens, UACC-62;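 also: growth inhibition of human UACC-62 cells, read out by a cell viability assay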
Description: SANGER: Inhibition of human UACC-62 cell growth in a cell viability assay.

UMUC3 = type: functional, cell-based, Homo sapiens; conditions: Homo sapiens, UMUC3;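 also: growth inhibition of human UM-UC-3 cells, read out with a cell viability assay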
Description: SANGER: Inhibition of human UM-UC-3 cell growth in a cell viability assay.

VMRC-RCZ = type: functional, cell-based, Homo sapiens; conditions: Homo sapiens, VMRC-RCZ;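 also: growth inhibition measured with a cell viability assay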
Description: SANGER: Inhibition of human VMRC-RCZ cell growth in a cell viability assay.

YAPC = type: functional, cell-based, Homo sapiens; conditions: Homo sapiens, YAPC;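 also: growth inhibition of YAPC cells, measured with a cell viability assay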
Description: SANGER: Inhibition of human YAPC cell growth in a cell viability assay.

Compound	IC50 (COR-L23)	IC50 (ChaGo-K-1)	IC50 (D-566MG)	IC50 (DK-MG)	IC50 (DOK)	IC50 (GCT)	IC50 (HCC1954)	IC50 (HGC-27)	IC50 (HN)	IC50 (HO-1-N-1)	IC50 (HuCCT-1)	IC50 (HuP-T3)	IC50 (KYSE-270)	IC50 (MEL-HO)	IC50 (MKN-7)	IC50 (NCI-H1693)	IC50 (NCI-H520)	IC50 (NCI-H630)	IC50 (NY)	IC50 (OC-314)	also measured
CC1(C)CNc2cc(NC(=O)c3cccnc3NCc3ccncc3)ccc21 [MOTESANIB]	> 2 µM	> 2 µM	> 2 µM	> 2 µM	> 2 µM	> 2 µM	> 2 µM	> 2 µM	> 2 µM	> 2 µM	> 2 µM	> 2 µM	> 2 µM	> 2 µM	> 2 µM	> 2 µM	> 2 µM	> 2 µM	> 2 µM	> 2 µM	IC50 (PC-14): > 2 µM; IC50 (RCM-1): > 2 µM; IC50 (SAS): > 2 µM; IC50 (SF-295): > 2 µM; IC50 (SK-LU-1): > 2 µM; IC50 (SK-MES-1): > 2 µM; IC50 (SW13): > 2 µM; IC50 (SW1783): > 2 µM; IC50 (SW-620): > 2 µM; IC50 (SW756): > 2 µM; IC50 (SW780): > 2 µM; IC50 (T47D): > 2 µM; IC50 (A-431): > 2 µM; IC50 (A549): > 2 µM; IC50 (BFTC-909): > 2 µM; IC50 (UACC-62): > 2 µM; IC50 (UMUC3): > 2 µM; IC50 (VMRC-RCZ): > 2 µM; IC50 (YAPC): > 2 µM
Cc1cn(-c2cc(NC(=O)c3ccc(C)c(Nc4nccc(-c5cccnc5)n4)c3)cc(C(F)(F)F)c2)cn1 [NILOTINIB]	> 2 µM	> 2 µM	> 2 µM	> 2 µM	> 2 µM	> 2 µM	> 2 µM	> 2 µM	> 2 µM	> 2 µM	> 2 µM	> 2 µM	> 2 µM	> 2 µM	> 2 µM	> 2 µM	> 2 µM	> 2 µM	> 2 µM	> 2 µM	IC50 (PC-14): > 2 µM; IC50 (RCM-1): > 2 µM; IC50 (SAS): > 2 µM; IC50 (SF-295): > 2 µM; IC50 (SK-LU-1): > 2 µM; IC50 (SK-MES-1): > 2 µM; IC50 (SW13): > 2 µM; IC50 (SW1783): > 2 µM; IC50 (SW-620): > 2 µM; IC50 (SW756): > 2 µM; IC50 (SW780): > 2 µM; IC50 (T47D): > 2 µM; IC50 (A-431): > 2 µM; IC50 (A549): > 2 µM; IC50 (BFTC-909): > 2 µM; IC50 (UACC-62): > 2 µM; IC50 (UMUC3): > 2 µM; IC50 (VMRC-RCZ): > 2 µM; IC50 (YAPC): > 2 µM
CCN(CC)CCCCNc1ncc2cc(-c3cc(OC)cc(OC)c3)c(NC(=O)NC(C)(C)C)nc2n1 [PD-173074]	> 2 µM	> 2 µM	> 2 µM	> 2 µM	> 2 µM	> 2 µM	> 2 µM	> 2 µM	> 2 µM	> 2 µM	> 2 µM	> 2 µM	> 2 µM	> 2 µM	> 2 µM	> 2 µM	> 2 µM	> 2 µM	> 2 µM	> 2 µM	IC50 (PC-14): > 2 µM; IC50 (RCM-1): > 2 µM; IC50 (SAS): > 2 µM; IC50 (SF-295): > 2 µM; IC50 (SK-LU-1): > 2 µM; IC50 (SK-MES-1): > 2 µM; IC50 (SW13): > 2 µM; IC50 (SW1783): > 2 µM; IC50 (SW-620): > 2 µM; IC50 (SW756): > 2 µM; IC50 (SW780): > 2 µM; IC50 (T47D): > 2 µM; IC50 (A-431): > 2 µM; IC50 (A549): > 2 µM; IC50 (BFTC-909): > 2 µM; IC50 (UACC-62): > 2 µM; IC50 (UMUC3): > 2 µM; IC50 (VMRC-RCZ): > 2 µM; IC50 (YAPC): > 2 µM
Cn1cnc2c(F)c(Nc3ccc(Br)cc3Cl)c(C(=O)NOCCO)cc21 [SELUMETINIB]	3.96 µM	> 4 µM	> 4 µM	> 4 µM	0.147 µM	> 4 µM	> 4 µM	> 4 µM	1 µM	0.741 µM	1.3 µM	> 4 µM	> 4 µM	0.139 µM	> 4 µM	> 4 µM	> 4 µM	> 4 µM	> 4 µM	> 4 µM	IC50 (PC-14): > 4 µM; IC50 (RCM-1): 0.494 µM; IC50 (SAS): > 4 µM; IC50 (SF-295): > 4 µM; IC50 (SK-LU-1): 3.86 µM; IC50 (SK-MES-1): > 4 µM; IC50 (SW1783): > 4 µM; IC50 (SW-620): 0.302 µM; IC50 (SW756): > 4 µM; IC50 (SW780): 0.666 µM; IC50 (T47D): > 4 µM; IC50 (A-431): > 4 µM; IC50 (A549): 0.214 µM; IC50 (BFTC-909): > 4 µM; IC50 (UACC-62): > 4 µM; IC50 (VMRC-RCZ): > 4 µM; IC50 (YAPC): > 4 µM
